Assay results taken from patent publication US6835382B2, “Ii peptide therapeutics to enhance antigen presentation” (University of Massachusetts, priority 1996, dated 2004).
Non-standard residues stand in square brackets, D forms with d. hArg = N=C(N)NCCCC[C@H](N)C(=O)O; Cit = NC(=O)NCCC[C@H](N)C(=O)O; Orn = NCCC[C@H](N)C(=O)O

System: murine E^k MHC class II allele
Assay: antigenic peptide prepulse assay, E^k allele (fixed APC prepulsed with PGCC81-104)
Format: cell-based
Conditions: for Activity in antigenic peptide prepulse assay, E^k (baseline = 1): Table 23, as printed: antigenic peptide prepulse 64 μM, AE peptide 1:8 μM; for Activity in antigenic peptide prepulse assay, E^k (baseline without AE peptide = 1.00): Table 19, prepulse 20 μM PGCC81-104; for Activity in antigenic peptide prepulse assay, E^k (baseline = 1.0): prepulse 1.25 μM antigenic peptide; for T cell response relative to baseline without AE peptide (None = 1.0), E^k: Table 27, antigenic peptide prepulse 1.25 μM, AE101 series peptide 64 μM, HT-2 supernatant dilution 1:8
Protocol: In a second type of assay, the “peptide prepulse assay”, the antigenic peptide is incubated with paraformaldehyde-fixed APC for 6 h. The APC are washed and incubated for 24 h with the AE101 series homolog and the T cell hybridoma specific for the antigenic peptide. After that incubation, an aliquot of the culture supernatant is transferred to a second culture to measure the relative degree of T hybridoma stimulation, as reflected in the effect of released interleukins on the growth of an interleukin-dependent, indicator cell line, as described above.
The two above described assays measure different aspects of the molecular mechanism of the AE101 series of peptides. In the “simultaneous assay”, AE101 series peptides are thought to induce the release of endogenously bound peptides and to permit the binding of the second, specific antigenic peptide which is relatively abundant in the culture fluid. The AE101 series peptides enhance antigenic peptide-specific T cell responses in simultaneous assays. In the “peptide prepulse” assay, the specific antigenic peptide becomes bound to MHC class II molecules on the surface of the fixed APC during the 6 h prepulse incubation. The effect of the AE101 series homologs is then thought to release that antigenic peptide, resulting in an apparent suppression of the immune response.
The AE101 series peptides are thought to contact the MHC class II molecules at a discrete site outside the antigenic peptide-binding groove. AE101 peptide binding to this “Ii-KEY” site is thought to induce a conformational change in the MHC class II molecules accelerating the dissociation of previously bound antigenic peptide. […] The AE101 series peptides thus inhibit antigenic peptide-specific T cell responses in the “peptide prepulse” assays.
Antigenic peptide-specific T cell activation was measured by the following procedure. Mitomycin C-treated A20 cells (A^dE^d) or CH27 cells APC (A^kE^k) were generated by incubating 5×10^6 cells/mL for 20 min at 37° C. with 0.025 mg/mL of mitomycin C (Sigma) in Dulbecco's Modified Eaglel's Medium (DMEM)/10 mM N-2(hydroxyethylpiperazine-N″[2-ethanesulfonic acid] (HEPES), followed by two washes with four volumes of DMEM-5% fetal calf serum (FCS), 10 mM HEPES. Fixed APC were generated by treating 1×10^6 cells/mL for 5 min with 0.5% paraformaldehyde in PBS (pH 7.2), followed by two washes with four volumes of DMEM-10% FCS, 10 mM HEPES. T cell hybridomas were irradiated 2200 rads before each assay.
The “peptide prepulse assay” was carried out under essentially the same conditions as described for the “simultaneous assay” with the following modifications. Fixed APC were first incubated for 6 h at 1×10^6 cells/mL in complete DMEM-5% FCS in 24-well microculture plates (1 mL/well) with antigenic peptide, followed by four washes with 10 volumes of DMEM-5% FCS. The cells were then exposed to varying concentrations of AE101 series peptide (64 μM, 16 μM, 4 μM, and 1 μM) for 24 h in the presence of the T cell hybridoma specific to the antigenic peptide. Interleukin release from these cultures was measured by proliferation of HT-2 cells to interleukins in supernatants transferred from the primary culture. Generally, a single dose of 64 μM of each AE101 series peptide was used. The baseline T cell response was measured by culturing T hybridoma cells with the antigenic peptide-prepulsed APC in the absence of AE101 series peptides.
Table 19: Activities of C-terminal truncation analogs of AE101 in an antigenic peptide prepulse assay. […] Paraformaldehyde-treated APC (fixed APC) expressing MHC class II molecules were incubated with antigenic peptide for 6 h (HEL106-116 for E^d and PGCC81-104 for E^k). After this incubation, the prepulsed APC were washed and cultured with T hybridoma cells and AE101 series peptides. The antigenic peptide concentration during the prepulse was 12 μM for Ed and 20 μM for E^k. The AE101 series peptide concentrations were 64 μM for E^d and 16 μM for E^k. […]

[1] = Table 24, AE peptide 64 μM, prepulse 0.625 μM antigenic peptide, supernatant 1:8
[2] = Table 20, AE peptide 16 μM, prepulse 20 μM antigenic peptide, supernatant 1:2
[3] = AE peptide 16 μM, supernatant 1:2
[4] = Table 22, AE peptide 16 μM, prepulse 20 μM antigenic peptide, supernatant 1:2
[5] = Table 25, AE peptide 64 μM, prepulse 2.5 μM antigenic peptide, supernatant 1:10
[6] = Table 26, AE peptide 64 μM, supernatant 1:8
[7] = Table 28, AE peptide 64 μM, supernatant 1:4
[8] = Table 21, AE peptide 16 μM, prepulse 20 μM antigenic peptide, supernatant 1:2

Substance: Ac-LRLKYPk-NH2 [AE307]
- Activity in antigenic peptide prepulse assay, E^k (baseline = 1.00) [1]: 1.10

Substance: Ac- (mL) RMKLPK-NH2 [AE174]
- Activity in antigenic peptide prepulse assay, E^k (baseline = 1) (supernatant 1:2): 0.81
- Activity in antigenic peptide prepulse assay, E^k (baseline = 1.00) [1]: 0.81

Substance: Ac-Y M MKLPKSAK-NH2 [AE141]
- Activity in antigenic peptide prepulse assay, E^k (baseline = 1.00) [2]: 0.52

Substance: Ac-YRMK-NH2 [AE117]
- Activity in antigenic peptide prepulse assay, E^k (baseline without AE peptide = 1.00) [3]: 0.09

Substance: Ac-LRMKLPKPPK-NH2 [AE168]
- Activity in antigenic peptide prepulse assay, E^k (baseline without AE peptide = 1.00) [3]: 0.01

Substance: Ac-LRMKLPK-NH2 [AE114]
- Activity in antigenic peptide prepulse assay, E^k (baseline = 1.00) [4]: 0.15
- Activity in antigenic peptide prepulse assay, E^k (baseline = 1) (supernatant 1:2): 0.78
- Activity in antigenic peptide prepulse assay, E^k (baseline = 1.00) [1]: 0.78
- Activity in antigenic peptide prepulse assay, E^k (baseline = 1.00) [5]: 0.79
- Activity in antigenic peptide prepulse assay, E^k (baseline = 1.0) [6]: 0.98
- T cell response relative to baseline without AE peptide (None = 1.0), E^k: 0.69
- Activity in antigenic peptide prepulse assay, E^k (baseline = 1.0) [7]: 0.78

Substance: Ac-LRMK HArg PK-NH2 (Ac-LRMK[hArg]PK-NH2; SMILES CSCC[C@H](NC(=O)[C@H](CCCNC(=N)N)NC(=O)[C@H](CC(C)C)NC(C)=O)C(=O)N[C@@H](CCCCN)C(=O)N[C@@H](CCCCNC(=N)N)C(=O)N1CCC[C@H]1C(=O)N[C@@H](CCCCN)C(N)=O) [AE227]
- Activity in antigenic peptide prepulse assay, E^k (baseline = 1.00) [5]: 0.87

Substance: Ac-Y Y MKLPKSAK-NH2 [AE140]
- Activity in antigenic peptide prepulse assay, E^k (baseline = 1.00) [2]: 0.79

Substance: Ac-LRMKLPKPPP-NH2 [AE167]
- Activity in antigenic peptide prepulse assay, E^k (baseline without AE peptide = 1.00) [3]: 0.01

Substance: Ac-L[Cit]MKNPK-NH2 [AE342]
- Activity in antigenic peptide prepulse assay, E^k (baseline = 1.00) [5]: 1.10

Substance: Ac-LR HArg KLPK-NH2 [AE197]
- Activity in antigenic peptide prepulse assay, E^k (baseline = 1.0) [6]: 0.96

Substance: Ac-LRMK (mL) PK-NH2 [AE175]
- Activity in antigenic peptide prepulse assay, E^k (baseline = 1) (supernatant 1:2): 0.87
- Activity in antigenic peptide prepulse assay, E^k (baseline = 1.00) [1]: 0.87

Substance: Ac-Y Q MKLPKSAK-NH2 [AE138]
- Activity in antigenic peptide prepulse assay, E^k (baseline = 1.00) [2]: 0.85

Substance: Ac-LRMK Y PK-NH2 (Ac-LRMKYPK-NH2; not fully specified; printed as Ac-LRMK Y PK-NH2) [AE235]
- Activity in antigenic peptide prepulse assay, E^k (baseline = 1.00) [1]: 0.80
- Activity in antigenic peptide prepulse assay, E^k (baseline = 1.00) [5]: 0.76
- Activity in antigenic peptide prepulse assay, E^k (baseline = 1.0) [6]: 0.60
- T cell response relative to baseline without AE peptide (None = 1.0), E^k: 0.83
- Activity in antigenic peptide prepulse assay, E^k (baseline = 1.0) [7]: 0.80

Substance: Ac-YRM-NH2 [AE118]
- Activity in antigenic peptide prepulse assay, E^k (baseline without AE peptide = 1.00) [3]: 0.35

Substance: Ac-Y[hArg]MKLPKSAK-NH2 [AE132]
- Activity in antigenic peptide prepulse assay, E^k (baseline = 1.00) [2]: 0.1
- Activity in antigenic peptide prepulse assay, E^k (baseline = 1.0) [6]: 0.89

Substance: Ac-YRMKLPKSAK-NH2 [AE109]
- Activity in antigenic peptide prepulse assay, E^k (baseline without AE peptide = 1.00) [3]: 0.07
- Activity in antigenic peptide prepulse assay, E^k (baseline = 1.00) [2]: 0.28
- Activity in antigenic peptide prepulse assay, E^k (baseline = 1.00) [8]: 0.07

Substance: Ac-YRMKL hydrP KSAK-NH2 (Ac-YRMKL[hydrP]KSAK-NH2) [AE143]
- Activity in antigenic peptide prepulse assay, E^k (baseline = 1.00) [8]: 0.10

Substance: Ac-ARMKNPK-NH2 [AE345]
- Activity in antigenic peptide prepulse assay, E^k (baseline = 1.00) [5]: 0.86

Substance: Ac-LR[Orn]KLPK-NH2 [AE195]
- Activity in antigenic peptide prepulse assay, E^k (baseline = 1.00) [5]: 0.74

Substance: Ac-ARMKLPKSAK-NH2 [AE120]
- Activity in antigenic peptide prepulse assay, E^k (baseline = 1.00) [5]: 0.62

Substance: Ac-YRMKL-NH2 [AE116]
- Activity in antigenic peptide prepulse assay, E^k (baseline without AE peptide = 1.00) [3]: 0.10

Substance: Ac-LRNKNPK-NH2 [AE349]
- Activity in antigenic peptide prepulse assay, E^k (baseline = 1.00) [5]: 0.81

Substance: Ac-Y H MKLPKSAK-NH2 [AE133]
- Activity in antigenic peptide prepulse assay, E^k (baseline = 1.00) [2]: 0.86

Substance: Ac-Y N MKLPKSAK-NH2 [AE137]
- Activity in antigenic peptide prepulse assay, E^k (baseline = 1.00) [2]: 0.72

Substance: Ac-ARNKNPK-NH2 [AE346]
- Activity in antigenic peptide prepulse assay, E^k (baseline = 1.00) [5]: 0.77

Substance: Ac-L[Cit]NKLPK-NH2 [AE343]
- Activity in antigenic peptide prepulse assay, E^k (baseline = 1.00) [5]: 0.90

Substance: Ac-Y[Cit]MKLPKSAK-NH2 [AE131]
- Activity in antigenic peptide prepulse assay, E^k (baseline = 1.00) [2]: 0.71
- Activity in antigenic peptide prepulse assay, E^k (baseline = 1.00) [5]: 0.98

Substance: Ac-ARNKLPK-NH2 [AE344]
- Activity in antigenic peptide prepulse assay, E^k (baseline = 1.00) [5]: 0.76

Substance: Ac-LRMKLP F-NH2 (Ac-LRMKLPF-NH2) [AE248]
- Activity in antigenic peptide prepulse assay, E^k (baseline = 1.00) [5]: 0.98

Substance: Ac-LR N KLPK-NH2 (Ac-LRNKLPK-NH2) [AE202]
- Activity in antigenic peptide prepulse assay, E^k (baseline = 1.00) [5]: 0.84

Substance: Ac-LR (mL) KyPK-NH2 [AE304]
- Activity in antigenic peptide prepulse assay, E^k (baseline = 1.00) [1]: 0.76

Substance: Ac-ARNKNPF-NH2 [AE347]
- Activity in antigenic peptide prepulse assay, E^k (baseline = 1.00) [5]: 1.10

Substance: Ac-LR (mL) KYPk-NH2 [AE305]
- Activity in antigenic peptide prepulse assay, E^k (baseline = 1.00) [1]: 0.91

Substance: Ac-LRMK l PK-NH2 [AE164]
- Activity in antigenic peptide prepulse assay, E^k (baseline = 1.00) [4]: 0.21
- Activity in antigenic peptide prepulse assay, E^k (baseline = 1.00) [1]: 0.67

Substance: Ac-LR (mL) KYPK-NH2 [AE303]
- Activity in antigenic peptide prepulse assay, E^k (baseline = 1.00) [1]: 1.00

Substance: Ac-YRMKLPK-NH2 [AE113]
- Activity in antigenic peptide prepulse assay, E^k (baseline without AE peptide = 1.00) [3]: 0.04

Substance: Ac-LR m KLPK-NH2 [AE162]
- Activity in antigenic peptide prepulse assay, E^k (baseline = 1.00) [4]: 0.61

Substance: YRMKLPKSAKPVSQMR [AE101]
- Activity in antigenic peptide prepulse assay, E^k (baseline = 1.00) [2]: 0.89

Substance: Ac-LRMKL p K-NH2 [AE165]
- Activity in antigenic peptide prepulse assay, E^k (baseline = 1.00) [4]: 0.22

Substance: Ac-LRLK HArg PK-NH2 [AE341]
- Activity in antigenic peptide prepulse assay, E^k (baseline = 1.00) [5]: 1.10

Substance: Ac-Y K MKLPKSAK-NH2 [AE134]
- Activity in antigenic peptide prepulse assay, E^k (baseline = 1.00) [2]: 0.43
- Activity in antigenic peptide prepulse assay, E^k (baseline = 1.0) [6]: 0.98

Substance: Ac-LRM M LPK-NH2 (Ac-LRMMLPK-NH2) [AE220]
- Activity in antigenic peptide prepulse assay, E^k (baseline = 1.0) [6]: 0.92

Substance: Ac-LRMKLP k-NH2 [AE166]
- Activity in antigenic peptide prepulse assay, E^k (baseline = 1.00) [4]: 0.15
- Activity in antigenic peptide prepulse assay, E^k (baseline = 1.00) [1]: 0.83

Substance: Ac-YAMKLPKSAK-NH2 [AE121]
- Activity in antigenic peptide prepulse assay, E^k (baseline = 1.00) [2]: 0.59

Substance: Ac-LRMKLP N-NH2 (Ac-LRMKLPN-NH2) [AE246]
- Activity in antigenic peptide prepulse assay, E^k (baseline = 1.0) [6]: 0.98

Substance: Ac-LRNKNPF-NH2 [AE348]
- Activity in antigenic peptide prepulse assay, E^k (baseline = 1.00) [5]: 0.72

Substance: Ac-L r MKLPK-NH2 [AE161]
- Activity in antigenic peptide prepulse assay, E^k (baseline = 1.00) [4]: 0.85

Substance: Ac-LRMKLP[Cit]-NH2 [AE241]
- Activity in antigenic peptide prepulse assay, E^k (baseline = 1.0) [6]: 0.99

Substance: Ac-YRMKLP-NH2 [AE115]
- Activity in antigenic peptide prepulse assay, E^k (baseline without AE peptide = 1.00) [3]: 0.07
